Test results taken from publication PMC10786919, “Design-rules for stapled peptides with in vivo activity and their application to Mdm2/X antagonists” (Nature Communications, 2024).
In brackets after ≈: the same amount, converted by molar mass. Where two headings read alike, the source gives them in different places. Positions of bridges follow the written chain, without caps; N, C: chain ends. Non-standard residues stand in square brackets, D forms with d. Residues, ends and D or L forms follow the SMILES beside them. Lys(N3) = [N-]=[N+]=NCCCC[C@H](N)C(=O)O; R8 = C=CCCCCCC[C@@](C)(N)C(=O)O; Cba = N[C@@H](CC1CCC1)C(=O)O; S5 = C=CCCC[C@](C)(N)C(=O)O; Ahx = NCCCCCC(=O)O; βAla = NCCC(=O)O

Experiments:
[1] = Lactate dehydrogenase (LDH) release assay; assay type: cell-based
Description: (§1) HCT116 cells were stably transfected with a p53 responsive β-lactamase reporter and expanded in McCoy’s 5 A Medium with 10% fetal bovine serum (FBS), Blasticidin, and Penicillin/Streptomycin and then transferred to 1.5 ml freezing vials and stored under liquid nitrogen in growth media containing 5% DMSO. […] The cells were then seeded into a 384-well plate at a density of 8000 cells per well. […] The final working concentration of DMSO was 0.5%. Lactate dehydrogenase release was detected using the CytoTox-ONE Homogenous Membrane Integrity Assay Kit (Promega), as per the manufacturer’s instructions. Measurements were carried out using the Tecan plate reader. […] Measurements were taken a minimum of three times (biological replicates) and values are reported as geometric means of the replicates.

[2] = Solubility assay (kinetic solubility, PBS pH 7); assay type: physicochemical; conditions: pH 7, PBS; for solubility kinetic: pH 7, aqueous buffer, kinetic from dmso stock, read-out: Solubility
Description: The standard reference solutions were prepared by diluting the 10 mM stock in 10:80:10 solution of acetonitrile:methanol:DMSO to 100 µM.
The solubility value is calculated by the following equation:
Solubility [µM] = (Peak area of sample/ Peak area of standard) (Standard concentration)

[3] = Experimental LogD (partition coefficient); conditions: for logD: not stated, Partition Coeff LogD
[4] = test system: HCT116 cells; experiment: Lactate dehydrogenase (LDH) release assay; assay type: cell-based
Description: as §1

[5] = in vitro; conditions: Nanoclick permeability assay EC50
Excerpt: Further, there have been several literature reports[18]–[20] that highlight that the combination of hydrophobic character and positive charge can result in mast cell degranulation (MCD), a potentially fatal condition[18]–[20]. […] The NanoClick assay[22] determines permeability of azide-labeled peptides by combining intracellular copper-free click chemistry with NanoBRET technology. Specifically, if an azido-peptide achieves cytosolic exposure, it will react with a cyclooctyne-decorated Halotag construct that is fused with nanoluciferase. This reaction blocks the click labelling of a subsequently added azido-labeled acceptor dye, thus decreasing the NanoBRET signal in a manner that is target-binding agnostic.
This assay was previously described in detail. The assay was performed in 384-well white assay plates (PerkinElmer CUSG03874) using assay-ready frozen cells that had been transiently transfected with the NanoLuc-HaloTag vector that were thawed at plated in complete media at a density of 6000 cells/ well and incubated at 37 °C 5% CO2 overnight. DIBAC-CA was diluted in assay buffer (OptiMem without phenol red + 1% FBS) and added to cells at a final concentration of 3 μM and incubated at 37 °C 5% CO2 for 1 h. Cells were subsequently centrifuged using a BlueWasher instrument (Blue Cat Bio) to remove the DIBAC-CA solution and washed two times with HBSS (Ca2 + , Mg2 + ). A volume of 30 μL of assay buffer was added back to cell plates. Peptides were serially diluted 4-fold in DMSO with a Hamilton Star apparatus and then delivered into assay plates with an acoustic liquid handler Labcyte ECHO (300 nl, 1% DMSO in-well concentration). After incubating cells with peptide for the desired time (4 or 18 h), the HaloTag ligand, NanoBret618-azide, was added to each well at a final concentration of 10 μM. […] Following addition of NanoBRET Nano-Glo Substrate, donor emission (450 nm) and acceptor emission (610 nm) were measured using an Envision instrument (PerkinElmer).

Structure (SMILES) | EC50 ([1]; LDH: Cytotoxicity assay EC50) | solubility kinetic [2] | logD [3] | EC50 ([1]; LDH: Cytotoxicity assay: EC50) | other results
CC(=O)N[C@@H](CCCCN=[N+]=[N-])C(=O)N[C@@H](CCCCN)C(=O)N[C@@H](CCCCN)C(=O)N[C@@H](CCCCN)C(=O)NCCCCCC(=O)N[C@H](C(=O)N[C@@H](CO)C(=O)N[C@@H](Cc1ccccc1)C(=O)N[C@]1(C)CCCCCCC=CCCC[C@@](C)(C(=O)N[C@@H](CCC(=O)O)C(=O)N[C@@H](CC(N)=O)C(=O)N[C@@H](Cc2ccccc2)C(N)=O)NC(=O)[C@H](CC(C)C)NC(=O)[C@H](CC(C)C)NC(=O)[C@H](C)NC(=O)[C@H](Cc2c[nH]c3ccccc23)NC(=O)[C@H](Cc2ccc(O)cc2)NC(=O)[C@H](CCC(=O)O)NC1=O)[C@@H](C)O [MP-085] (Ac-[Lys(N3)]KKK[Ahx]TSF[R8]EYWALL[S5]ENF-NH2; staple 9-16) | > 50 µM | 2 µM (≈ 5.01 µg/mL) | 2.39 | – | –
CC(C)C[C@@H]1NC(=O)[C@H](C)NC(=O)[C@H](Cc2c[nH]c3ccccc23)NC(=O)[C@H](Cc2ccc(O)cc2)NC(=O)[C@H](CCC(=O)O)NC(=O)[C@](C)(NC(=O)[C@H](Cc2ccccc2)NC(=O)[C@H](CO)NC(=O)[C@@H](NC(=O)CNC(=O)[C@H](CO)NC(=O)CNC(=O)[C@@H](N)CCCCN=[N+]=[N-])[C@@H](C)O)CCCCCCC=CCCC[C@@](C)(C(=O)N[C@@H](CCC(=O)O)C(N)=O)NC(=O)[C@H](CC(C)C)NC1=O [MP-011] | – | 23 µM (≈ 43.8 µg/mL) | 2.05 | > 50 µM | LDH: Cytotoxicity assay: % Effect [4]: 18.05%
CC(=O)N[C@@H](CC(C)C)C(=O)N[C@H](C(=O)N[C@@H](Cc1ccccc1)C(=O)N[C@]1(C)CCCCCCC=CCCC[C@@](C)(C(=O)N[C@@H](CO)C(=O)N[C@@H](C)C(=O)N[C@@H](C)C(N)=O)NC(=O)[C@H](CC2CCC2)NC(=O)[C@H](CCC(N)=O)NC(=O)[C@H](C)NC(=O)[C@H](Cc2c[nH]c3cc(Cl)ccc23)NC(=O)[C@H](Cc2ccc(O)cc2)NC(=O)[C@H](CCC(=O)O)NC1=O)[C@@H](C)O [MP-192] | – | – | – | 19.9 µM | Solubility [2]: Poorly Behaved; Partition Coeff LogD [3]: Poorly Behaved
CC(=O)N[C@@H](CCCCN=[N+]=[N-])C(=O)NCCC(=O)N[C@@H](CC(C)C)C(=O)N[C@H](C(=O)N[C@@H](Cc1ccccc1)C(=O)N[C@]1(C)CCCCCCC=CCCC[C@@](C)(C(=O)N[C@@H](CO)C(=O)N[C@@H](C)C(=O)N[C@@H](CCCNC(=N)N)C(N)=O)NC(=O)[C@H](CC2CCC2)NC(=O)[C@H](CCC(N)=O)NC(=O)[C@H](C)NC(=O)[C@H](Cc2c[nH]c3ccccc23)NC(=O)[C@H](Cc2ccc(O)cc2)NC(=O)[C@H](CCC(=O)O)NC1=O)[C@@H](C)O [MP-480] (Ac-[Lys(N3)][βAla]LTF[R8]EYWAQ[Cba][S5]SAR-NH2; staple 6-13) | – | – | – | > 50 µM | cell entry EC50 [5]: 0.1 µM
CC(=O)N[C@@H](CCCCN=[N+]=[N-])C(=O)N[C@@H](CCCCN)C(=O)N[C@@H](CCCCN)C(=O)NCCCCCC(=O)N[C@H](C(=O)N[C@@H](CO)C(=O)N[C@@H](Cc1ccccc1)C(=O)N[C@]1(C)CCCCCCC=CCCC[C@@](C)(C(=O)N[C@@H](CCC(=O)O)C(=O)N[C@@H](CC(N)=O)C(=O)N[C@@H](Cc2ccccc2)C(N)=O)NC(=O)[C@H](CC(C)C)NC(=O)[C@H](CC(C)C)NC(=O)[C@H](C)NC(=O)[C@H](Cc2c[nH]c3ccccc23)NC(=O)[C@H](Cc2ccc(O)cc2)NC(=O)[C@H](CCC(=O)O)NC1=O)[C@@H](C)O [MP-082] (Ac-[Lys(N3)]KK[Ahx]TSF[R8]EYWALL[S5]ENF-NH2; staple 8-15) | > 50 µM | 2 µM (≈ 4.75 µg/mL) | 2.46 | – | –
CC(=O)N[C@@H](CCCCN=[N+]=[N-])C(=O)NCCC(=O)N[C@@H](CC(C)C)C(=O)N[C@H](C(=O)N[C@@H](Cc1ccccc1)C(=O)N[C@]1(C)CCCCC#CC#CCCC[C@@](C)(C(=O)N[C@@H](C)C(=O)N[C@@H](C)C(=O)N[C@@H](C)C(=O)N[C@@H](C)C(=O)N[C@@H](C)C(=O)N[C@H](C)C(N)=O)NC(=O)[C@H](CC2CCC2)NC(=O)[C@H](CCC(N)=O)NC(=O)[C@H](C)NC(=O)[C@H](Cc2c[nH]c3ccccc23)NC(=O)[C@H](Cc2ccc(O)cc2)NC(=O)[C@H](CCC(=O)O)NC1=O)[C@@H](C)O [MP-616] | – | – | 2.67 | – | EC50 ([1]; 0% FBS 4Hr, read-out: LDH: Cytotoxicity assay: EC50): > 50.7 µM; EC50 ([1]; 10% FBS 16Hr, read-out: LDH: Cytotoxicity assay: EC50): > 50.7 µM; LDH: Cytotoxicity assay: % Effect ([4]; 0% FBS 4Hr): 12.87%; LDH: Cytotoxicity assay: % Effect ([4]; 10% FBS 16Hr): 8.138%
